Measured values published in ChEMBL document CHEMBL1141741, “Coluteol and Colutequinone B, More Antifungal Isoflavonoids from Colutea arborescens” (1998).

tested on: Saccharomyces cerevisiae; assay: Antimicrobial activity against Saccharomyces cerevisiae; format: functional

`COC1=CC(=O)C([C@@H]2COc3cc(OC)ccc3C2)=C(OC)C1=O` [COLUTEQUINONE B] and `COc1ccc2c(c1)OC[C@@H](c1cc(O)c(OC)c(O)c1OC)C2` [R-COLUTEOL] cannot be ordered by MIC: under 50 µg/mL for the first, under 100 µg/mL for the second.

`COC1=C(OC)C(=O)C([C@@H]2COc3cc(OC)ccc3C2)=CC1=O` [COLUTEQUINONE A] and NYSTATIN cannot be ordered by MIC: under 50 µg/mL for the first, under 5 µg/mL for the second.
